# Experimental data taken from patent publication US6602487B1, “Methods and tests for producing and for inhibiting coronary artery vasospasms” (Dimera Incorporated, priority 1997, dated 2003).
# Several values for one entry are separate records, joined by “and”; a condition that tells them apart may be missing. Identical values can stand only once.
# Assay: Progesterone serum levels after topical ProGest cream in menopausal or postmenopausal women
# Assay type: in vivo, human
# Conditions: topical ProGest cream 2 ml, per patient
# Procedure: An open label, controlled study was carried out in six healthy menopausal or postmenopausal women using no over-the-counter or prescription medications, medical foods or dietary supplements which would influence progesterone levels. Menopausal or postmenopausal status was determined by clinical methods. The inclusion criteria were low estrogen levels (less than or equal to 25 picograms per ml); non-use of progesterone for two weeks prior to the beginning of the study, and four weeks if medroxyprogesterone acetate was used; a body mass index less than 30; age between 40 and 65; non-smoker; at least six months after menopause (last bleeding); normal mammogram and pap smear within the past year; and reasonable reliability and client compliance. […] The cream was to be applied in 2 ml amounts on calendar days 2-15 at 8 a.m. Applications were increased to a second 2 ml application at 8 p.m. on calendar days 16-30. In addition, estrogen was applied as a […] patch. The patch used was Vivelle®, Ciba (now Novartis), Summit, N.J. The Vivelle® patch (0.05 mg/day) was applied on calendar days 0, 3, 7, 10, 14, 17, 21, 24 and 28.
# Estrogen and progesterone serum levels were determined by chemiluminescence and were conducted on calendar days 2, 9, 16, 23, and 30 at times indicated.
smiles,measurement,setting,value
"CC(=O)[C@H]1CC[C@H]2[C@@H]3CCC4=CC(=O)CC[C@]4(C)[C@H]3CC[C@]12C [P, progesterone]",Progesterone Levels,"Week 0, 1/2 H",1.6 Nanograms/ml
same,Progesterone Levels,"Week 0, 1 H",3.1 Nanograms/ml
same,Progesterone Levels,"Week 0, 2 H",2.8 Nanograms/ml
same,Progesterone Levels,"Week 0, 3 H",3.5 Nanograms/ml
same,Progesterone Levels,"Week 0, 4 H",3.3 Nanograms/ml
same,Progesterone Levels,"Week 0, 6 H",4.6 Nanograms/ml
same,Progesterone Levels,"Week 0, 12 H",2.4 Nanograms/ml
same,Progesterone Levels,"Week 1, 0 H",0.43 Nanograms/ml (2×) and 0.4 Nanograms/ml and 1.5 Nanograms/ml and 1.6 Nanograms/ml and 1.9 Nanograms/ml
same,Progesterone Levels,"Week 1, 1 H (first of two columns headed 1 H), listed as Progesterone",1.0 Nanograms/ml and 1.5 Nanograms/ml and 1.3 Nanograms/ml and 1.6 Nanograms/ml and 2.0 Nanograms/ml
same,Progesterone Levels,"Week 1, 1 H (second of two columns headed 1 H), listed as Progesterone",0.84 Nanograms/ml and 1.0 Nanograms/ml and 1.4 Nanograms/ml and 1.1 Nanograms/ml and 1.3 Nanograms/ml and 2.7 Nanograms/ml
same,Progesterone Levels,"Week 1, 2 H",0.49 Nanograms/ml and 0.82 Nanograms/ml and 0.57 Nanograms/ml and 1.0 Nanograms/ml and 1.2 Nanograms/ml and 1.4 Nanograms/ml
same,Progesterone Levels,"Week 1, 3 H",0.91 Nanograms/ml and 0.94 Nanograms/ml and 1.2 Nanograms/ml and 1.7 Nanograms/ml and 1.6 Nanograms/ml
same,Progesterone Levels,"Week 1, 4 H",0.96 Nanograms/ml and 1.0 Nanograms/ml and 1.1 Nanograms/ml (2×) and 1.3 Nanograms/ml and 2.3 Nanograms/ml
same,Progesterone Levels,"Week 1, 6 H",0.98 Nanograms/ml and 1.3 Nanograms/ml (2×) and 2.0 Nanograms/ml and 1.6 Nanograms/ml (2×)
same,Progesterone Levels,"Week 1, 12 H",0.87 Nanograms/ml and 0.96 Nanograms/ml and 1.3 Nanograms/ml and 1.6 Nanograms/ml and 1.8 Nanograms/ml and 2.0 Nanograms/ml
same,Progesterone Levels,"Week 2, 0 H",0.93 Nanograms/ml and 1.2 Nanograms/ml and 0.96 Nanograms/ml and 2 Nanograms/ml and 1.7 Nanograms/ml and 3.3 Nanograms/ml
same,Progesterone Levels,"Week 2, 1 H, listed as Progesterone",0.82 Nanograms/ml and 0.94 Nanograms/ml and 1.2 Nanograms/ml and 1.3 Nanograms/ml and 14.1 Nanograms/ml and 2.4 Nanograms/ml
same,Progesterone Levels,"Week 2, 1 H, listed as progesterone",14.1 Nanograms/ml
same,Progesterone Levels,"Week 2, 2 H",1 Nanograms/ml and 0.81 Nanograms/ml and 1.2 Nanograms/ml and 1.7 Nanograms/ml and 3.3 Nanograms/ml and 2.9 Nanograms/ml
same,Progesterone Levels,"Week 2, 4 H",1.1 Nanograms/ml and 1.5 Nanograms/ml and 1.2 Nanograms/ml and 2.4 Nanograms/ml and 5 Nanograms/ml and 1.8 Nanograms/ml
same,Progesterone Levels,"Week 2, 6 H",1 Nanograms/ml and 1.3 Nanograms/ml and 1.2 Nanograms/ml and 1.5 Nanograms/ml and 3.2 Nanograms/ml and 2.9 Nanograms/ml
same,Progesterone Levels,"Week 2, 8 H",0.94 Nanograms/ml and 0.83 Nanograms/ml and 1.2 Nanograms/ml and 1.1 Nanograms/ml and 3 Nanograms/ml and 2.2 Nanograms/ml
same,Progesterone Levels,"Week 2, 12 H",0.84 Nanograms/ml and 0.94 Nanograms/ml and 1.2 Nanograms/ml and 2.8 Nanograms/ml and 3.1 Nanograms/ml
same,Progesterone Levels,"Week 2, 24 H",0.81 Nanograms/ml and 2 Nanograms/ml and 1.1 Nanograms/ml and 0.98 Nanograms/ml and 2.1 Nanograms/ml
same,concentration at 1 h,"female, human, topical, Week 1, 1 H",1 ng/mL
same,concentration,"female, human, topical, Week 1, 3 H",1 ng/mL
